In patent publication US20200022970A1, “APPLICATION OF LEVOROTATORY TETRAHYDROPALMATINE TO THE TREATMENT OF DEPRESSION DISORDERS, BIPOLAR AND RELATED DISORDERS, MANIC EPISODES AND ANXIETY DISORDERS” (priority 2018, published 2020):
Where two headings read alike, the source gives them in different places.

What was measured:
Male ICR mice [1] = assay: Tail suspension test; format: in vivo; settings: for influence of flumazenil on antidepressant effect (immobility time): 2.0 mg/kg p.o. 45 minutes prior plus flumazenil 1.25 mg/kg i.p. 15 minutes prior; for oral dose that significantly shortens immobility time (antidepressant effect): 45 minutes prior to testing (imipramine 30 minutes), immobility scored from 2 to 6 min
Experimental: Tail suspension test. Male ICR mice 4 to 6 weeks of age were randomized into groups (n=12-20/group). Vehicle (0.9% NaCl), or one of oral l-THP, dl-THP and d-THP (0.1-5.0 mg/kg) was administered 45 minutes prior to testing; or 30 mg/kg oral imipramine was administered 30 minutes prior to testing. In the test, a mouse was taped to a bar by the tail and suspended 15 cm above ground for 6 minutes. The total time of immobility was scored manually from 2 to 6 min during the period of suspension. Decreased time of immobility is indicative of antidepressant effect (Stem et al, 1985). To test whether the antidepressant effect elicited by l-THP or dl-THP can be blocked by the benzodiazepine (BZ) binding site antagonist flumazenil, naïve male 4-6 week old mice were randomly separated into three groups (n=12-20/group). The first group received vehicle (p.o.) 45 minutes prior to test and flumazenil (1.25 mg/kg i.p) 15 minutes prior to test, the second group received l-THP (2.0 mg/kg, p.o) or dl-THP (2.0 mg/kg, p.o.) 45 minutes prior to test and vehicle (i.p) 15 minutes prior to test, and the third group received l-THP (2.0 mg/kg p.o) or dl-THP (2.0 mg/kg p.o) 45 minutes prior to test and flumazenil (1.25 mg/kg i.p) 15 minutes prior to experiment.

Male ICR mice [2] = assay: Elevated plus-maze test; format: in vivo; settings: for time spent in the open arms (anxiolytic effect): 45 minutes prior, 5-minute test; for anxiolysis (time spent in open arms): p<0.001
Experimental: Elevated plus-maze test. Naive male ICR mice 4 to 6 weeks of age were randomly separated into groups (n=15-20/group). Vehicle (0.9% NaCl), 0.01, 0.05, 0.1, 0.5, 1, 2 and 2.5 mg/kg dl-THP or l-THP, or 1 or 3 mg/kg diazepam was orally administered 45 minutes prior to experiment. The test apparatus consisted of four arms, 25 cm×5 cm each, extended from a center platform of 5 cm×5 cm in the shape of a plus sign. Two of the opposite arms were enclosed by 20 cm opaque high walls, making up the closed arms. The plus maze was elevated 40 cm off the ground. Each mouse was placed onto the center of the maze with head facing an open arm. The frequency and time spent in the open and closed arms were recorded for a period of 5 minutes. An arm entry was recorded when all four paws were inside the arm. Increased number of open-arm entries and percentage of time spent in them are indicative of an anxiolytic effect on the mice (Kalueff and Tuohimaa, 2004; Treit et al., 1993). In addition, the number of closed-arm entries provided an index of locomotor activity (Boguszewski and Zagrodzka, 2002). […] The first group received vehicle (p.o.) 45 minutes prior to test and flumazenil (1.25 mg/kg i.p) 15 minutes prior to test, the second group received l-THP (1.0 mg/kg, p.o) 45 minutes prior to test and vehicle (i.p) 15 minutes prior to test, and the third group received l-THP (1.0 mg/kg p.o) 45 minutes prior to test and flumazenil (1.25 mg/kg i.p) 15 minutes prior to test.

mice [3] = settings: oral administration; cited from earlier work
Male ICR mice [4] = assay: Locomotor activity side effect test (crossings of infrared beams); format: in vivo; settings: 3 mg/kg, 45 minutes prior; p<0.05
Experimental: Manic-like behavior was induced accomplished using the method of Pathak et al. (2015). Male ICR mice of 6 to 7 week were given daily injection of 1.8 mg/kg d-amphetamine (amphetamine-sensitized mice) or vehicle (0.9% NaCl vehicle treated, viz. mice unsensitized by amphetamine) for 5 days. Amphetamine was then withdrawn for 7 days. The locomotor activity test ‘ZIL-2’ apparatus (Beijing Institute of Materia Medica) employed consisted of a transparent plastic cylinder of 20 cm diameter×12 cm height equipped with six evenly spaced sets of infrared beam-photocell. The number of transitions made by the mouse across the beams as detected by the photocells was recorded automatically over a period of 5 minutes. The level of locomotor activity was scored by the number beam-crossings made by the mouse. In the test, amphetamine sensitized mice were randomly separated into groups (m=12-20 per group). The Amp group of mice received 0.9 mg/kg amphetamine injection 10 minutes prior to testing. […]
Male ICR mice of 4 to 6 weeks were randomly separated into groups (n=15-20 per group). […] Locomotor activity was measured based on crossings of infrared beams. […] Myorelaxant activity was measured using the horizontal wire test. […] For each mouse, the number of falls in 60 seconds was recorded.

Male ICR mice [5] = assay: Horizontal wire test (myorelaxant effect); format: in vivo
Experimental: Male ICR mice of 4 to 6 weeks were randomly separated into groups (n=15-20 per group). Vehicle (0.9% NaCl), 0.01-2.5 mg/kg dl-THP or l-THP, and 1 and 3 mg/kg diazepam were orally administered 45 minutes prior to test. Locomotor activity was measured based on crossings of infrared beams. […] Myorelaxant activity was measured using the horizontal wire test. In this test, mouse was lifted by the tail and allowed to grasp onto a horizontally strung wire (1 mm diameter, 20 cm long and placed 20 cm above the table) with their forepaws and released. For each mouse, the number of falls in 60 seconds was recorded.

female ICR mice = assay: Crawley's sociability and preference for social novelty test (three-chamber box); format: in vivo; settings: 45 minutes prior
Experimental: In Crawley's test, female ICR mice of 8 to 10 weeks were randomized into groups (n=12-20/group), and orally administered 45 minutes prior to testing with vehicle (0.9% NaCl), 0.1 mg/kg l-THP or 0.5 mg/kg l-THP. The test apparatus comprised a rectangular, three-chamber box. Each chamber was 19×45 cm, and the dividing walls between chambers were made of clear Plexiglas. The central chamber was connected to each side chamber with a removable wall. Two identical wire cylindrical containers with removable lids that were large enough to hold a single mouse each were placed vertically inside the apparatus, one in the middle of each side chamber. Each of these containers consisted of a cup made of metal wires to allow for air exchange between the interior and exterior of the cylinder but small enough to prevent direct physical interactions between an animal on the inside with one on the outside, and a removable lid. In the beginning of the test, the two cylindrical containers in the two side chambers were empty, and the subject mouse was placed at the center of the middle chamber for adaptation. After 5 minutes, one social-object mouse (stranger-1) was placed inside the cylinder in one of the side chambers. The placement of strange-1 was systematically changed between the two side chambers between trials. Then the walls separating the middle chamber from the two side chambers were removed to allow the subject mouse free access to all three chambers. In a first 10-minute session, the duration and number of direct contacts between the subject mouse and the container cup housing or not housing the stranger-1 mouse were recorded individually. At the end of this session, a second social-object mouse (stranger-2) was placed in the wire container cup that was empty during the first 10-minute session. Then the duration and number of direct contacts between the subject mouse and the two container cups holding stranger-1 mouse and stranger-2 mouse were recorded separately during a second 10-minute session. The first 10-minute session provided an estimate of the sociability of the subject mouse in terms of its preference if any to spend more time with the container holding the stranger-1 mouse compared to the empty container. The second 10-minute session provided an estimate of the preference of the subject mouse for social novelty in terms of its preference if any to associate with the container holding the novel stranger-2 mouse compared to the container holding the more familiar stranger-1 mouse (Moy et al 2004; Kaidanovich-Beilin et al., 2011).

[6] = system: amphetamine sensitized mice; assay: Test for antimanic-like behavior: locomotor activity of amphetamine sensitized mice; format: in vivo; settings: 0.9 mg/kg amphetamine 10 minutes prior
Experimental: Manic-like behavior was induced accomplished using the method of Pathak et al. (2015). Male ICR mice of 6 to 7 week were given daily injection of 1.8 mg/kg d-amphetamine (amphetamine-sensitized mice) or vehicle (0.9% NaCl vehicle treated, viz. mice unsensitized by amphetamine) for 5 days. Amphetamine was then withdrawn for 7 days. The locomotor activity test ‘ZIL-2’ apparatus (Beijing Institute of Materia Medica) employed consisted of a transparent plastic cylinder of 20 cm diameter×12 cm height equipped with six evenly spaced sets of infrared beam-photocell. The number of transitions made by the mouse across the beams as detected by the photocells was recorded automatically over a period of 5 minutes. The level of locomotor activity was scored by the number beam-crossings made by the mouse. In the test, amphetamine sensitized mice were randomly separated into groups (m=12-20 per group). The Amp group of mice received 0.9 mg/kg amphetamine injection 10 minutes prior to testing. The l-THP groups received oral l-THP (0.05, 0.1 and 0.2 mg/kg) 30 minutes prior to testing, and 0.9 mg/kg amphetamine injection 10 minutes prior to testing. The Veh mice received vehicle orally 30 minutes prior to testing and vehicle injection 10 minutes prior to testing.

rats [7] = settings: PTSD rats, cited from earlier work
rats [8] = settings: PTSD rats, cited from earlier work; remark: listed apart in the source
rats [9] = settings: 10, 20 and 40 mg/kg i.p., mediated by D2 receptors; cited from earlier work
mice [10] = settings: 6.25, 12.5, and 18.75 mg/kg i.g.; cited from earlier work
rats [11] = settings: cited from earlier work

Q: Which results are given for COc1cc2c(cc1OC)[C@@H]1Cc3ccc(OC)c(OC)c3CN1CC2 (racemic) [dl-THP, dl-tetrahydropalmatine]?
A: influence of flumazenil on antidepressant effect (immobility time) (Male ICR mice [1]): inhibition of the antidepressant effects; lowest oral dose eliciting antidepressant effect based on immobility time (Male ICR mice [1]): ≥ 2.0 mg/kg; oral dose that significantly shortens immobility time (antidepressant effect) (Male ICR mice [1]): 2.0 to 5.0 mg/kg; time spent in the open arms (anxiolytic effect) (Male ICR mice [2]; 1.0 mg/kg oral): significant increase in time spent in the open arms; time spent in the open arms (anxiolytic effect) (Male ICR mice [2]; 2.0 mg/kg oral): significant increase in time spent in the open arms; lowest oral dose active for anxiolysis (Male ICR mice [2]): ≥ 1.0 mg/kg; anxiolytic effects: entries into open arms without significant change in entries into closed arms (mice [3]): selective anxiolytic effects

Q: Which “anxiolysis (time spent in open arms)” value (Male ICR mice [2]; diazepam 1 mg/kg) does the source give for CN1C(=O)CN=C(c2ccccc2)c2cc(Cl)ccc21 [Diazepam] here?
A: significant anxiolysis

Q: What about the “anxiolysis (time spent in open arms)” value (Male ICR mice [2]; diazepam 3 mg/kg) of the same compound?
A: significant anxiolysis

Q: What about the “locomotor activity (crossings of infrared beams)” value (Male ICR mice [4]) of the same compound?
A: significant decrease

Q: And the “myorelaxant effect (number of falls in 60 seconds)” value (Male ICR mice [5]; 3 mg/kg)?
A: significant (p<0.05) myorelaxant effect

Q: Which “oral dose that significantly shortens immobility time (antidepressant effect)” value (Male ICR mice [1]) does the source give for CN(C)CCCN1c2ccccc2CCc2ccccc21 [Imipramine] here?
A: 30 mg/kg

Q: Which results are given for COc1cc2c(cc1OC)[C@@H]1Cc3ccc(OC)c(OC)c3CN1CC2 [l-THP, levorotatory tetrahydropalmatine]?
A: influence of flumazenil on antidepressant effect (immobility time) (Male ICR mice [1]): inhibition of the antidepressant effects; lowest oral dose eliciting antidepressant effect based on immobility time (Male ICR mice [1]): ≥ 0.5 mg/kg; oral dose that significantly shortens immobility time (antidepressant effect) (Male ICR mice [1]): 0.5 to 5.0 mg/kg; preference for social novelty: stranger-2 vs familiar stranger-1 mouse (female ICR mice; 0.1 mg/kg oral, p<0.001): showed preference for the novel stranger-2 mouse; sociability: time with stranger-1 mouse container vs empty container (female ICR mice; 0.1 mg/kg oral, p<0.001): significant enhancement of sociability; preference for social novelty: stranger-2 vs familiar stranger-1 mouse (female ICR mice; 0.5 mg/kg oral, p<0.01): showed preference for the novel stranger-2 mouse; sociability: time with stranger-1 mouse container vs empty container (female ICR mice; 0.5 mg/kg oral, p<0.01): significant enhancement of sociability; level of locomotor activity relative to Amp mice (antimanic effect) ([6]; 0.05 mg/kg oral 30 minutes prior): significantly reduced the level locomotor activity; level of locomotor activity relative to Amp mice (antimanic effect) ([6]; 0.1 mg/kg oral 30 minutes prior): significantly reduced the level locomotor activity; level of locomotor activity relative to Amp mice (antimanic effect) ([6]; 0.2 mg/kg oral 30 minutes prior): significantly reduced the level locomotor activity; time spent in the open arms (anxiolytic effect) (Male ICR mice [2]; 0.1 mg/kg oral): significant increase in time spent in the open arms; time spent in the open arms (anxiolytic effect) (Male ICR mice [2]; 0.5 mg/kg oral): significant increase in time spent in the open arms; influence of flumazenil on anxiolytic effect (time spent in open arms) (Male ICR mice [2]; 1.0 mg/kg p.o. 45 minutes prior plus flumazenil 1.25 mg/kg i.p. 15 minutes prior): inhibition of the anxiolytic effect; time spent in the open arms (anxiolytic effect) (Male ICR mice [2]; 2.5 mg/kg oral): significant increase in time spent in the open arms; lowest oral dose active for anxiolysis (Male ICR mice [2]): ≥ 0.1 mg/kg; myorelaxant effect (number of falls in 60 seconds) (Male ICR mice [5]; male, ICR, mouse, in vivo, 45 min): significant (p<0.01) myorelaxant effect; myorelaxant effect (number of falls in 60 seconds) (Male ICR mice [5]; mouse, in vivo): did not induce any significant myorelaxant effect; antidepressant effect based on sucrose intake or immobility time in the forced swimming test (rats [7]; daily 50 mg/kg i.p.): significant antidepressant effect; antidepressant effect based on sucrose intake or immobility time in the forced swimming test (rats [7]; daily 10 or 20 mg/kg i.p.): not; anxiolytic effect based on the elevated plus-maze test (rats [8]; daily 50 mg/kg i.p.): significant anxiolytic effect; anxiolytic effect based on the elevated plus-maze test (rats [8]; daily 10 or 20 mg/kg i.p.): not; antinociceptive effects (rats [9]): dose-dependent antinociceptive effects; locomotor activity (mice [10]): did not affect locomotor activity; locomotion (rats [11]; 3 mg/kg i.p.): failed to do so; locomotion (rats [11]; 10 mg/kg i.p.): inhibited locomotion
